Paper PMC10111423, “Antimalarial Imidazopyridines Incorporating an Intramolecular Hydrogen Bonding Motif: Medicinal Chemistry and Mechanistic Studies” (ACS Infectious Diseases, 2023)
Converted amounts (≈) assume the structure as drawn.

Key:
[1] = In vitro cytotoxicity MTT assay; format: cell-based, Chinese hamster; settings: Chinese hamster, Chinese hamster ovarian (CHO) cells; MTT assay
Protocol: (§1) In vitro cytotoxicity was performed on the Chinese Hamster Ovarian cell line by measuring cellular growth and survival calorimetrically through the MTT assay.[29],[30] The formation of tetrazolium salt was used as a measure of chemosensitivity and growth. (Details of this assay is described in the Supporting Information.) page 19: et al, 1993). The test samples were prepared to a 10 mmol/L stock solution in 100% DMSO. Samples were tested as a suspension if not completely dissolved. Further dilutions to the desired starting concentration were freshly prepared in growth media on each occasion of the experiment. The standard antimalarial drugs chloroquine (CQ) and artesunate (Arts) were used as the reference drug in all experiments. A full dose-response was performed for all compounds […] value). Test samples were tested at a starting concentration of 6mmol/L, which was then serially diluted 2-fold in growth medium to generate the tested concentration range. The same dilution technique was used for all samples. CQ and Arts were tested from a starting concentration of 1μg/mL. The highest concentration of solvent to which the parasites were exposed was <0.1% and has no measurable effect on the parasite viability (data not shown). The assay plate was incubated at 37 °C for 72h in a sealed gas chamber under 3% O2 and 4% CO2 with the balance being N2. After 72h, the wells in the assay plate were gently resuspended, and 15μL from each well was transferred to a duplicate plate containing 100μL of Malstat reagent and 25μL of nitroblue tetrazolium solution in each well. Plates were left to develop for 20 minutes in the dark and then absorbance of each well was quantified using a spectrophotometer at 620nm wavelength. The remaining population of parasites at each concentration of the test compound was determined by comparing the absorbance of each well to the absorbance of a well containing the drug-free control. Survival was plotted against concentration and the IC50 values were obtained using a non-linear dose-response curve fitting analysis via the Dotmatics software platform.2 In vitro Cytotoxicity Assay In vitro cytotoxicity was performed on the Chinese Hamster Ovarian cell line by measuring […] diphenyltetrazolium bromide (MTT) assay.3,4 The formation of tetrazolium salt was used as a measure of chemosensitivity and growth. 2 mg/mL stock solutions of the test compounds were prepared in DMSO and stored at -20 °C until required. The stock solution was subsequently diluted with the assay medium to make up an initial concentration of 100 μg/mL. The initial 100 μg/mL solution is serially diluted 10- S19 page 20: fold to attain six assay concentrations of 100-0.001 μg/mL. […] was used as the reference compound in this assay. The highest concentration of DMSO, which was used as the negative control, had no measurable effect on cell viability. After 44 hours of exposure of the cells to the test compounds, a solution of MTT was added. This was followed by an additional 4 hours of incubation at 37 °C. The assay plates were centrifuged, medium removed, and DMSO was added to the crystals. The amount of formazan was ascertained by measuring the absorbance at 540 nm. GraphPad Prism software was then used to generate IC50 values through a non-linear dose-response curve analysis. β-Hematin Inhibition Assay 20 mM stock solutions of controls and test compounds were made in DMSO. A solution […] was added to every well in columns 1-11 of a 96-well plate. 140 μL of water and 40 μL of 305.5 μM NP-40 were added to column 12 to mediate the formation of beta-hematin. 20 μL of test compounds (20 mM) were added to column 12 and 100 μL of this solution serially diluted to column 2, leaving column 1 blank (0 μM of test compound). 178.8 μL aliquot of hematin stock was suspended in 20 ml of a 1 M acetate buffer at pH 4.9. 100 μL of this hematin suspension was then added into each well, and the plates were incubated for ±5 hrs at 37°C. […]

[2] = tested on: Chinese hamster ovarian (CHO) cell line; experiment: In vitro cytotoxicity MTT assay; format: cell-based; settings: CHO vs PfNF54
Protocol: as §1

β-hematin = experiment: β-Hematin inhibition assay (BHIA), cell-free NP-40 mediated; format: biochemical; settings: mean of n = 3
Protocol: page 20: fold to attain six assay concentrations of 100-0.001 μg/mL. […] was used as the reference compound in this assay. The highest concentration of DMSO, which was used as the negative control, had no measurable effect on cell viability. After 44 hours of exposure of the cells to the test compounds, a solution of MTT was added. This was followed by an additional 4 hours of incubation at 37 °C. The assay plates were centrifuged, medium removed, and DMSO was added to the crystals. The amount of formazan was ascertained by measuring the absorbance at 540 nm. GraphPad Prism software was then used to generate IC50 values through a non-linear dose-response curve analysis. β-Hematin Inhibition Assay 20 mM stock solutions of controls and test compounds were made in DMSO. A solution […] was added to every well in columns 1-11 of a 96-well plate. 140 μL of water and 40 μL of 305.5 μM NP-40 were added to column 12 to mediate the formation of beta-hematin. 20 μL of test compounds (20 mM) were added to column 12 and 100 μL of this solution serially diluted to column 2, leaving column 1 blank (0 μM of test compound). 178.8 μL aliquot of hematin stock was suspended in 20 ml of a 1 M acetate buffer at pH 4.9. 100 μL of this hematin […] pH 7.4 and 50% pyridine) and 60 μL of acetone were added to all wells. The absorbances of plate wells were recorded at 405 nm on a SpectraMax plate reader. Sigmoidal dose-response curves with variable slopes were fitted to the absorbance data using GraphPad Prism to obtain the IC50 values for each compound. In vitro Microsomal Stability Assay The in vitro microsomal stability assay was performed in duplicate in a 96-well micro titre […] individually in human (pool of 50, mixed gender), rat (pool of 711, male Sprague Dawley) and mouse (pool of 1634, male CD1) liver microsomes (final protein concentration of 0.4 mg/mL; Xenotech, Kansas, USA), suspended in 0.1M phosphate buffer (pH 7.4). Incubations were S20

[3] = tested on: chloroquine-sensitive (NF54) strain of P. falciparum; experiment: In vitro asexual blood-stage antiplasmodium pLDH assay, NF54 strain; format: cell-based; settings: Plasmodium falciparum, NF54; pLDH, 72 h, n ≥ 3; read-out: In vitro antiplasmodium activity IC50 PfNF54 strain
Protocol: (§2) Compounds were screened against multi-drug-resistant (K1) and sensitive (NF54) strains of P. falciparum in vitro using a parasite lactate dehydrogenase assay (pLDH) (the method is described fully in the Supporting Information). […]
(§3) In vitro Asexual Blood Stage Antiplasmodium Assay
(§4) Parasites were cultured as per the method of Trager and Jensen,1 with modifications. IC50 values were determined using parasite lactate dehydrogenase as a marker for survival (Makler […]
(§5) et al, 1993). The test samples were prepared to a 10 mmol/L stock solution in 100% DMSO.
(§6) Samples were tested as a suspension if not completely dissolved. Further dilutions to the desired starting concentration were freshly prepared in growth media on each occasion of the experiment. The standard antimalarial drugs chloroquine (CQ) and artesunate (Arts) were used as the reference drug in all experiments. A full dose-response was performed for all compounds in a 96-well plate to determine the concentration inhibiting 50% of parasite growth (IC50– value). Test samples were tested at a starting concentration of 6mmol/L, which was then serially diluted 2-fold in growth medium to generate the tested concentration range. The same dilution technique was used for all samples. CQ and Arts were tested from a starting concentration of 1µg/mL. The highest concentration of solvent to which the parasites were exposed was <0.1% and has no measurable effect on the parasite viability (data not shown).
(§7) The assay plate was incubated at 37 °C for 72h in a sealed gas chamber under 3% O2 and 4% CO2 with the balance being N2. After 72h, the wells in the assay plate were gently resuspended, and 15µL from each well was transferred to a duplicate plate containing 100µL of Malstat reagent and 25µL of nitroblue tetrazolium solution in each well. Plates were left to develop for 20 minutes in the dark and then absorbance of each well was quantified using a spectrophotometer at 620nm wavelength.
(§8) The remaining population of parasites at each concentration of the test compound was determined by comparing the absorbance of each well to the absorbance of a well containing […]
(§9) the drug-free control. […]
(§10) The initial 100 µg/mL solution is serially diluted 10-

Solubility = format: physicochemical; settings: pH 6.5, aqueous buffer
Source text: Table 1 In Vitro Antiplasmodium Activity, Cytotoxicity, BHIA, and Solubility | column: Solubility pH 6.5, μM

[4] = tested on: multidrug-resistant (K1) strain of P. falciparum; experiment: In vitro asexual blood-stage antiplasmodium pLDH assay, K1 strain; format: cell-based; settings: Plasmodium falciparum, 72 h, n ≥ 3, read-out: In vitro antiplasmodium activity IC50 PfK1 strain
Protocol: as §2, §3, §4, §5, §6, §7, §8, §9, §10

Row | SMILES | IC50 at 44 h [1] [nM] | SI (selectivity index) = IC50 CHO/IC50 PfNF54 [2] | IC50 (β-hematin) [nM] | IC50 [3] [nM] | solubility (Solubility) [µM] | IC50 [4] [nM]
1 | CCN(CCNc1cc2[nH]c(C3CCCCCC3)nc2cn1)Cc1ccc(Cl)cc1O [Compound 15, 5-Chloro-2-(((2-((2-cycloheptyl-1H-imidazo[4,5-c]pyridin-6-yl)amino)ethyl)(ethyl)amino)methyl)phenol] | 50000 | 74.60 | 137000 | 670 | 150 (≈ 66.3 µg/mL) | 2480
2 | CCN(CCNc1cc2[nH]c([C@H]3CC[C@H](C(F)(F)F)CC3)nc2cn1)Cc1ccc(Cl)cc1O [Compound 16, 5-Chloro-2-((ethyl(2-((2-((1r,4r)-4-(trifluoromethyl)cyclohexyl)-1H-imidazo[4,5-c]pyridin-6-yl)amino)ethyl)amino)methyl)phenol] | > 50000 | >89.29 | 127000 | 560 | 135 (≈ 67 µg/mL) | 1890
3 | CCN(CCNc1cc2[nH]c([C@H]3CC[C@@H](C(F)(F)F)CC3)nc2cn1)Cc1ccc(Cl)cc1O [Compound 17, 5-Chloro-2-((ethyl(2-((2-((1r,4r)-4-(trifluoromethyl)cyclohexyl)-1H-imidazo[4,5-c]pyridin-6-yl)Amino)ethyl)amino)methyl)phenol] | 49100 | 51.68 | 239000 | 950 | 135 (≈ 67 µg/mL) | 1710
4 | CCN(CCNc1cc2[nH]c(C3CCC(OC)CC3)nc2cn1)Cc1ccc(Cl)cc1O (stereo not drawn) [Compound 18, 5-Chloro-2-((ethyl(2-((2-(4-methoxycyclohexyl)-1H-imidazo[4,5-c]pyridin-6-yl)amino)ethyl)amino)methyl)phenol] | > 50000 | >17.18 | 18000 | 2910 | 120 (≈ 55 µg/mL) | 2340
